Reference: patent publication US12064445B2, “Cytarabine conjugates for cancer therapy” (Biosight Ltd., priority 2015, dated 2024)
Read-outs that look alike come from different tables or passages of the source.

Assays:
[1] = tested on: Molt-4 (Human acute lymphoblastic leukemia); details: Ogbomo et al., Neoplasia 2008, read-out: Cytarabine in literature (IC50); cited from earlier work
[2] = tested on: HepG2 (Human hepatocellular carcinoma); details: Grove et al., Cancer Res. 1995, read-out: Cytarabine in literature (IC50); cited from earlier work
Molt-4 cells = experiment: Human leukemia hollow fiber model transplanted in nude mice (Molt-4); format: in vivo; details: 1.5 mg/mouse/day, 7 consecutive days
Experimental: (§1) Next, the efficacy of Astarabine® in vivo was studied on a human leukemia (Molt-4 and CCRF-CEM cells) hollow fiber model transplanted in nude mice. Astarabine® was injected at doses of 6.25 mg/mouse/day and 25 mg/mouse/day intraperitoneally (IP), daily, for 7 consecutive days; cytarabine was injected at a dose of 1.5 mg/mouse/day. Leukemia cell growth was measured using the MTT assay as described in Example 1 herein above.

[3] = tested on: HL-60 (Human promyelocytic leukemia); experiment: MTT assay, IC50 in tumor cell lines; format: cell-based; details: HL-60, 72 hr
Experimental: (§2) The effect of Astarabine® on different cell lines was evaluated. Briefly, various cell lines were obtained from ATCC or ECACC. Hematological cells were grown in RPMI medium containing 10-20% FBS and 1% glutamine. Solid tumor cells were grown in DMEM medium containing 10-20% FBS and 1% glutamine. Cells were seeded into 96-well plates, 50,000 cells/ml, 0.2 ml per well. Test substances were diluted in saline or PBS and added in final concentrations of 0.1 nM to 10 μM, in a volume of 20 μl. The study was conducted in triplicates, PBS was used as control. Plates were incubated for 72 hr at 37° C., 5% CO2. At the end of the exposure period, a MTT assay using the MTT reagent [3-(4,5-dimethylthiazol-2-yl)-2,5-diphenyltetrazolium bromide] was performed. MTT was added to each well at a concentration of 5 mg/ml in a volume of 0.02 ml. Plates were incubated at 37° C. for 3 h. The plates were centrifuged at 3500 rpm for 5 minutes and the supernatant was aspired. The pellets which contained MTT crystals were each dissolved in 0.2 ml DMSO. Absorbance was determined using ELISA reader at a wavelength of 570 nm.

[4] = tested on: MEG 01 (Human chronic myelogenous leukemia); experiment: MTT assay, IC50 in tumor cell lines; format: cell-based; details: MEG 01, 72 hr
Experimental: as §2

[5] = tested on: A2780 (Human ovarian carcinoma); experiment: MTT assay, IC50 in tumor cell lines; format: cell-based; details: A2780, 72 hr
Experimental: as §2

[6] = tested on: Molt-4 (Human acute lymphoblastic leukemia); experiment: MTT assay, IC50 in tumor cell lines; format: cell-based; details: Molt-4, 72 hr
Experimental: as §2

[7] = tested on: HepG2 (Human hepatocellular carcinoma); experiment: MTT assay, IC50 in tumor cell lines; format: cell-based; details: HepG2, 72 hr
Experimental: as §2

[8] = tested on: K562 (Human chronic myelogenous leukemia); experiment: MTT assay, IC50 in tumor cell lines; format: cell-based; details: K562, 72 hr
Experimental: as §2

[9] = tested on: SU DHL-1 (Human large cell lymphoma); experiment: MTT assay, IC50 in tumor cell lines; format: cell-based; details: SU DHL-1, 72 hr
Experimental: as §2

[10] = tested on: P388.D1 (Mouse lymphoid macrophage); experiment: MTT assay, IC50 in tumor cell lines; format: cell-based; details: P388D1, P388.D1, 72 hr
Experimental: as §2

[11] = tested on: NCIH727 (Human lung non small cell carcinoma); experiment: MTT assay, IC50 in tumor cell lines; format: cell-based; details: NCI-H727, NCIH727, 72 hr
Experimental: as §2

[12] = tested on: RS 4:11 (Human acute lymphoblastic leukemia); experiment: MTT assay, IC50 in tumor cell lines; format: cell-based; details: RS4-11, RS 4:11, 72 hr
Experimental: as §2

[13] = tested on: L1210 (Mouse DBA/2 lymphocytic leukemia); experiment: MTT assay, IC50 in tumor cell lines; format: cell-based; details: L1210, 72 hr
Experimental: as §2

[14] = tested on: SU DHL-5 (Human B-cell non Hodgkin's lymphoma); experiment: MTT assay, IC50 in tumor cell lines; format: cell-based; details: SU DHL-5, 72 hr
Experimental: as §2

[15] = tested on: CCRF-SB (Human acute lymphoblastic leukemia); experiment: MTT assay, IC50 in tumor cell lines; format: cell-based; details: 72 hr
Experimental: as §2

[16] = tested on: THP-1 (Human monocytic leukemia); experiment: MTT assay, IC50 in tumor cell lines; format: cell-based; details: THP-1, 72 hr
Experimental: as §2

[17] = tested on: CCRF-CEM (Human acute lymphoblastic leukemia T lympoblastoid line); experiment: MTT assay, IC50 in tumor cell lines; format: cell-based; details: 72 hr
Experimental: as §2

[18] = tested on: A2780 (Human ovarian carcinoma); details: Ruiz Van Haperen, Cancer Res. 1994, read-out: Cytarabine in literature (IC50); cited from earlier work
[19] = tested on: HL-60 (Human promyelocytic leukemia); details: Qin et al., Clin. Cancer Res. 2007, read-out: Cytarabine in literature (IC50); cited from earlier work
[20] = tested on: L1210 (Mouse DBA/2 lymphocytic leukemia); details: Breistol et al., Cancer Res. 1999, read-out: Cytarabine in literature (IC50); cited from earlier work
[21] = tested on: CCRF-SB (Human acute lymphoblastic leukemia); details: Manfredini et al., Bioorg. Med. Chem. 2000, read-out: Cytarabine in literature (IC50); cited from earlier work
[22] = tested on: CCRF-CEM (Human acute lymphoblastic leukemia T lympoblastoid line); details: Manfredini et al., Bioorg. Med. Chem. 2000, read-out: Cytarabine in literature (IC50); cited from earlier work
RPMI8226 (Human myeloma) = experiment: MTT assay, IC50 in tumor cell lines; format: cell-based; details: RPMI-8226, RPMI8226, 72 hr
Experimental: as §2, with “Test substances were diluted in saline or PBS and added in final concentrations of 0.1 nM to 10 μM, in a volume of 20 μl.” left out

CCRF-CEM cells = experiment: Human leukemia hollow fiber model transplanted in nude mice (CCRF-CEM); format: in vivo; details: 1.5 mg/mouse/day, 7 consecutive days
Experimental: as §1

Nc1ccn([C@@H]2O[C@H](CO)[C@@H](O)[C@@H]2O)c(=O)n1 [cytarabine, cytosine arabinoside]
IC50 [1]: 29 ± 1.8 nM | IC50 [2]: 185 ± 240 nM | Inhibition of growth of Molt-4 cells (Molt-4 cells): 81.1% | IC50 [3]: 49.6 to 165 nM | IC50 [4]: 1200 to 5600 nM | IC50 [5]: 72 to 114 nM | IC50 [6]: 1.1 to 12.3 nM | IC50 [7]: 980 to 1160 nM | IC50 [8]: 46.1 to 381 nM | IC50 [9]: 124 to 524 nM | IC50 [10]: 600 to 900 nM | IC50 [11]: 590 to 770 nM | IC50 [12]: 26.4 nM | IC50 [13]: 12.2 to 16.4 nM | IC50 [14]: 323 nM | IC50 [15]: 1900 to 3100 nM | IC50 [16]: 2300 to 5500 nM | IC50 [17]: 3.1 to 25.2 nM | IC50 [18]: 14 ± 4 nM | IC50 [19]: 37 ± 6.1 nM | IC50 [20]: 40 ± 9 nM | IC50 [21]: 4200 nM | IC50 [22]: 30 nM | IC50 (RPMI8226 (Human myeloma)): 9700 to 63000 nM | Inhibition of growth of CCRF-CEM cells (CCRF-CEM cells): 73.3%
